Experimental data: patent US6218431A, “Substituted biphenyls” (Bayer Corporation, priority 1997, dated 2001)

The molecules below were run against T1, glucagon receptor (Homo sapiens, UniProt P47871) (assay: glucagon receptor binding assay (125I-glucagon, CHO-HGR membranes)). Details: 20 μM; reported where 20 μM did not reduce glucagon binding by 50%.
T1 construct: expressed in transfected cells; host or cells: Chinese Hamster Ovary cells (CHO-HGR), membranes
How it was run: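 Membranes from CHO cells expressing glucagon receptor (10 ug protein) in Tris pH 7.4 buffer with EDTA, BSA and bacitracin, incubated with test compound and 125I-glucagon (9 fmol) 60 min at room temperature. Bound radioactivity counted after filtration; nonspecific binding defined with 1 μM native glucagon; 0.5% DMSO.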

T1 sequence (P47871 26-477): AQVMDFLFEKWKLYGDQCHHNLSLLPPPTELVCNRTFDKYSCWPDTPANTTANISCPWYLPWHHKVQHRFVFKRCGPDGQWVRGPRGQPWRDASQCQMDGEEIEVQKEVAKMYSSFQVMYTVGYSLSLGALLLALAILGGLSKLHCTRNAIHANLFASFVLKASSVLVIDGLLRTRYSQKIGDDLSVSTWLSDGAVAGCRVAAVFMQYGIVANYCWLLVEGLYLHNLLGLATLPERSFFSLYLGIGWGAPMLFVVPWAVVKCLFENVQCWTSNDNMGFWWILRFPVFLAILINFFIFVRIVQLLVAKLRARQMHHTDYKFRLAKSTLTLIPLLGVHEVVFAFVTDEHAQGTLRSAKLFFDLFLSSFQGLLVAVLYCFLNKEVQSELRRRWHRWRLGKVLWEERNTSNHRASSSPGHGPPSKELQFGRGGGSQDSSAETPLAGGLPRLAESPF

Going from `C=CCc1c(C)cc(C)c(C(C)O)c1-c1ccc(F)cc1` (stereo not shown) [Example 196, 3,5-Dimethyl-2-(1-hydroxyethyl)-6-(prop-2-enyl)-4'-fluoro-1,1'-biphenyl] to `C=CC(O)c1nc(C(C)C)c(CO)c(-c2ccc(F)cc2)c1CCCCC` (stereo not shown) [Example 206, 2-(1-Hydroxyprop-2-enyl)-3-pentyl-4-(4-fluorophenyl)-5-hydroxymethyl-6-isopropylpyridine], the inhibition at 20 µM rises from 40.3% to 44.6%.

First: CCCCCc1c(CN2CCOCC2)nc(C(C)C)c(CO)c1-c1ccc(F)cc1 [Example 199, 2-Morpholinomethyl-3-pentyl-4-(4-fluorophenyl)-5-hydroxymethyl-6-isopropylpyridine]
Second: CCCCCc1c(CO)nc(C(C)C)c(CO)c1-c1ccc(F)cc1 [Example 200, 2,5-Bis(hydroxymethyl)-3-pentyl-4-(4-fluorophenyl)-6-isopropylpyridine]
The inhibition at 20 µM of the first is lower: 8.67% for the first, 32.8% for the second.

Compared with `CCCCCc1c(COC)nc(C(C)C)c(CO)c1-c1ccc(F)cc1` [Example 201, 2-Methoxymethyl-3-pentyl-4-(4-fluorophenyl)-5-hydroxymethyl-6-isopropylpyridine], `CCCCCc1c(C(C)(C)O)nc(C(C)C)c(CO)c1-c1ccc(F)cc1` [Example 219, 2-(1-Hydroxy-1-methylethyl)-3-pentyl-4-(4-fluorophenyl)-5-hydroxymethyl-6-isopropylpyridine] is lower in inhibition at 20 µM: 46.7% for the first, 5.11% for the second.

Same assay, conditions: 125I-glucagon; 60 min at room temperature; read-out: IC50

`CCCc1c(C)cc(C)c(C(C)O)c1-c1ccc(F)cc1` (stereo not shown) [Example 195, 3,5-Dimethyl-2-(1-hydroxyethyl)-6-propyl-4'-fluoro-1,1'-biphenyl] and `CCCCCc1c(C(C)C)nc(C)c(CO)c1-c1ccc(F)cc1` [Example 198, 2-Isopropyl-3-pentyl-4-(4-fluorophenyl)-5-hydroxymethyl-6-methylpyridine] are within 1.5-fold of each other in IC50: 12 µM for the first, 17 µM for the second.

`CCCCCc1c(COCC)nc(C(C)C)c(CO)c1-c1ccc(F)cc1` [Example 202, 2-Ethoxymethyl-3-pentyl-4-(4-fluorophenyl)-5-hydroxymethyl-6-isopropylpyridine] and `C=CCOCc1nc(C(C)C)c(CO)c(-c2ccc(F)cc2)c1CCCCC` [Example 203, 2-(Prop-2-enyloxy)methyl-3-pentyl-4-(4-fluorophenyl)-5-hydroxymethyl-6-isopropylpyridine] are within 1.5-fold of each other in IC50: 9 µM for the first, 6.3 µM for the second.

`C=CCC(O)c1nc(C(C)C)c(CO)c(-c2ccc(F)cc2)c1CCCCC` (stereo not shown) [Example 205, 2-(1-Hydroxybut-3-enyl)-3-pentyl-4-(4-fluorophenyl)-5-hydroxymethyl-6-isopropylpyridine] and `CCCCCc1c(C(O)CC)nc(C(C)C)c(CO)c1-c1ccc(F)cc1` (stereo not shown) [Example 212, 2-(1-Hydroxypropyl)-3-pentyl-4-(4-fluorophenyl)-5-hydroxymethyl-6-isopropylpyridine] are within 1.5-fold of each other in IC50: 18 µM for the first, 14 µM for the second.

Going from `CCCCCc1c(C(C)O)nc(C(C)C)c(CO)c1-c1ccc(F)cc1` (stereo not shown) [Example 210, 2-(1-Hydroxyethyl)-3-pentyl-4-(4-fluorophenyl)-5-hydroxymethyl-6-isopropylpyridine] to `CCCCCc1c(C(C)OCC)nc(C(C)C)c(CO)c1-c1ccc(F)cc1` (stereo not shown) [Example 217, 2-(1-Ethoxyethyl)-3-pentyl-4-(4-fluorophenyl)-5-hydroxymethyl-6-isopropylpyridine], the IC50 falls from 18 µM to 8 µM (2.2-fold). The second is the more potent here.

Going from `C=Cc1nc(C(C)C)c(CO)c(-c2ccc(F)cc2)c1CCCCC` [Example 214, 2-Ethenyl-3-pentyl-4-(4-fluorophenyl)-5-hydroxymethyl-6-isopropylpyridine] to `CCCCCc1c(C=C(C)C)nc(C(C)C)c(CO)c1-c1ccc(F)cc1` [Example 226, 2-Isopropyl-3-hydroxymethyl-4-(4-fluorophenyl)-5-pentyl-6-(2-methylpropenyl)pyridine], the IC50 falls from 5 µM to 3 µM (1.7-fold). The second is the more potent here.

Compared with `CCCCCc1c(C=CC(=O)OC)nc(C(C)C)c(CO)c1-c1ccc(F)cc1` [Example 215, 2-(2-Carbomethoxyethenyl)-3-pentyl-4-(4-fluorophenyl)-5-hydroxymethyl-6-isopropylpyridine], `CCCCCc1c(C(C)=O)nc(C(C)C)c(CO)c1-c1ccc(F)cc1` [Example 218, 2-Acetyl-3-pentyl-4-(4-fluorophenyl)-5-hydroxymethyl-6-isopropylpyridine] is 2.9-fold lower in IC50: 19 µM for the first, 6.5 µM for the second. The second is the more potent here.

First: CCCCCc1c(CCc2ccccc2)nc(C(C)C)c(CO)c1-c1ccc(F)cc1 [Example 227, 2-Isopropyl-3-hydroxymethyl-4-(4-fluorophenyl)-5-pentyl-6-(2-phenylethyl)pyridine]
Second: CCCCCc1c(CCC(C)C)nc(C(C)C)c(CO)c1-c1ccc(F)cc1 [Example 229, 2-Isopropyl-3-hydroxymethyl-4-(4-fluorophenyl)-5-pentyl-6-(3-methylbutyl)pyridine]
The IC50 of the first is 1.6-fold higher: 1.3 µM for the first, 0.8 µM for the second.

First: CCCCCc1c(CC(C)C)nc(C(C)C)c(CO)c1-c1ccc(F)cc1 [Example 228, 2-Isopropyl-3-hydroxymethyl-4-(4-fluorophenyl)-5-pentyl-6-(2-methylpropyl)pyridine]
Second: CC1=CC(C)(C)Cc2c1nc(C(C)C)c(CO)c2-c1ccc(F)cc1 [Example 236, 2-Isopropyl-3-hydroxymethyl-4-(4-fluorophenyl)-5,6-dihydro-6,6,8-trimethylquinoline]
The IC50 of the first is 2-fold lower: 2 µM for the first, 4 µM for the second.

Compared with `CC(C)c1nc2c(c(-c3ccc(F)cc3)c1CO)CCCC2(C)C` [Example 230, 2-Isopropyl-3-hydroxymethyl-4-(4-fluorophenyl)-5,6,7,8-tetrahydro-8,8-dimethylquinoline], `CC(C)c1nc2c(c(-c3ccc(F)cc3)c1CO)CCC2(C)C` [Example 234, 2-Isopropyl-3-hydroxymethyl-4-(4-fluorophenyl)-7,7-dimethyl-5H-cyclopenta[b]pyridine] is 8.9-fold higher in IC50: 0.9 µM for the first, 8 µM for the second.

Going from `CC(C)c1nc2c(c(-c3ccc(F)cc3)c1C(C)O)CCCC2(C)C` (stereo not shown) [Example 231, 2-Isopropyl-3-(1-hydroxyethyl)-4-(4-fluorophenyl)-5,6,7,8-tetrahydro-8,8-dimethylquinoline] to `CC(C)c1nc2c(c(-c3ccc(F)cc3)c1C(C)O)CCC2(C)C` (stereo not shown) [Example 235, 2-Isopropyl-3-(1-hydroxyethyl)-4-(4-fluorophenyl)-7,7-dimethyl-5H-cyclopenta[b]pyridine], the IC50 rises from 0.5 µM to 3.1 µM (6.2-fold).

First: CC(C)c1nc(C(C)C)c(C(C)O)c(-c2ccc(F)cc2)c1-c1ccccc1 (stereo not shown) [Example 233, 2,6-Diisopropyl-3-(1-hydroxyethyl)-4-(4-fluorophenyl)-5-phenylpyridine]
Second: CC1=CC(C)(C)Cc2c1nc(C(C)C)c(C(C)O)c2-c1ccc(F)cc1 (stereo not shown) [Example 237, 2-Isopropyl-3-(1-hydroxyethyl)-4-(4-fluorophenyl)-5,6-dihydro-6,6,8-trimethylquinoline]
The IC50 of the first is 2-fold lower: 0.6 µM for the first, 1.2 µM for the second.

With `CCCc1c(C(C)C)cc(C(C)C)c(C(C)O)c1-c1ccc(F)cc1O` (stereo not shown) [Example 242, 3,5-Diisopropyl-2-(1-hydroxyethyl)-6-propyl-4'-fluoro-2'-hydroxy-1,1'-biphenyl] the IC50 was 0.005 µM.

Same assay, conditions: IC50, 125I-glucagon; 60 min at room temperature

Compared with `CCCCCc1c(C)nc(C(C)C)c(CO)c1-c1ccc(F)cc1` [Example 197, 2-Isopropyl-3-hydroxymethyl-4-(4-fluorophenyl)-5-pentyl-6-methyl-pyridine], `CCCCCc1c(C(O)CCC)nc(C(C)C)c(CO)c1-c1ccc(F)cc1` (stereo not shown) [Example 211, 2-(1-Hydroxybutyl)-3-pentyl-4-(4-fluorophenyl)-5-hydroxymethyl-6-isopropylpyridine] is 2.7-fold higher in IC50: 7 µM for the first, 19 µM for the second.
